Assay results reported in patent US8993596B2, “4-(azacycloalkyl)benzene-1,3-diol compounds as tyrosinase inhibitors, process for the preparation thereof and use thereof in human medicine and in cosmetics” (Galderma Research & Development, priority 2008, dated 2015).

What was measured:
[1] = tested on: MNT1 human melanoma cells; assay: Cell toxicity (3H-leucine incorporation) in the melanogenesis assay; format: cell-based; settings: MNT-1, 24 h at 37° C.
Description: (§1) The inhibition of melanogenesis is measured in MNT1 human melanoma cells according to a protocol adapted from Reigner et al., Cell Mol Biol (1999) 45: 969-980. The assay is based on the concomitant incorporation of 2 radiolabelled tracers: ^14C-thiouracil is incorporated into the neosynthesized melanin and reflects melanogenesis, whereas ^3H-leucine is incorporated into the proteins and reflects cell viability and, consequently, the toxicity of the compounds tested.
(§2) The MNT1 cells are seeded into 96-well plates in the presence of the test compounds and of the radioisotopes. After incubation for 24 h at 37° C., the cells are washed and the amount of the 2 radioisotopes is measured. The test compounds are evaluated in terms of dose-response so as to calculate an IC50 for inhibition of melanogenesis on the basis of the ^14C incorporation which is standardized through the ^3H incorporation. An IC50 for cell toxicity is also calculated on the basis of the ^3H incorporation.

[2] = tested on: MNT1 human melanoma cells; assay: Melanogenesis inhibition assay (14C-thiouracil incorporation); format: cell-based; settings: MNT-1, 24 h at 37° C., 14C incorporation standardized through 3H incorporation
Description: as §1, §2

tyrosinase = tyrosinase (Mus musculus (Mouse), UniProt P11344); assay: Tyrosinase activity inhibition assay (B16F1 cell lysate); format: biochemical, murine; settings: lysate of B16F1 cells, L-tyrosine substrate, MBTH, reading at 520 nm after 6 hours at 37° C.; read-out: Tyrosine hydroxylase/ Dopa oxidase IC50
Chain of tyrosinase (P11344 19-533): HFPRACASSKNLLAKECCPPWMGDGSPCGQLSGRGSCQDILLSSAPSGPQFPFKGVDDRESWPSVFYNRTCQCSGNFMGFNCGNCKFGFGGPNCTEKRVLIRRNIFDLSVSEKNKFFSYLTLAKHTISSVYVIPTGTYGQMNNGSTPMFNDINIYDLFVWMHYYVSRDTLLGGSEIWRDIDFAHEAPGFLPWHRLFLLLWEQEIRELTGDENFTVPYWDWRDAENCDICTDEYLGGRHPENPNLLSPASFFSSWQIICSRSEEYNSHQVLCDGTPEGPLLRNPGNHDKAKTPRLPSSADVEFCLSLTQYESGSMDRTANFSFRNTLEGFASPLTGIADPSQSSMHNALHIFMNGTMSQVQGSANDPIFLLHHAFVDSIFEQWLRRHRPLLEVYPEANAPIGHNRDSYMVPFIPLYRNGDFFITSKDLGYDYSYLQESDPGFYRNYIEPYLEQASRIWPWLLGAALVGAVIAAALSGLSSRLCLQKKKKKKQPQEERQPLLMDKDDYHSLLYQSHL
Description: The activity of the inhibitors is measured using a lysate of B16F1 cells (murine melanoma line). In the presence of the L-tyrosine substrate, the tyrosinase present in these cells catalyses the hydroxylation of L-tyrosine to give L-DOPA and then the oxidation of the L-DOPA to give dopaquinone. In the presence of MBTH (3-methyl-2-benzothiazolinone hydrazone), the dopaquinone is trapped so as to form a pink complex which absorbs at 520 nm.
The B16F1 cells are cultured in DMEM medium+10% foetal calf serum+10^−9 M α-MSH for 4 days at 37° C. under 7% CO2. They are treated with trypsin, washed in PBS, counted and pelleted. The pellet is taken up at 10^7 cells/ml in lysis buffer (10 mM sodium phosphate, pH 6.8-1% Igepal) and the suspension is treated with ultrasound for 10 seconds. After centrifugation for 30 minutes at 4000 rpm, the supernatant obtained constitutes the cell lysate used as tyrosinase source in the enzymatic assay.
The assays are carried out in duplicate in 384-well plates in a total volume of 50 μl. […]
The plate is incubated at 37° C. and a spectrophotometric reading is carried out at 520 nm after 6 hours of incubation. In order to avoid any possible absorption of the products, the system uses corrected absorbance (absorbance at time 6 h—absorbance at time zero). […]

IC50 [2] [nM] | IC50 (tyrosinase) [nM] | SMILES | IC50 [1] [nM]
15000 |  | CCCCc1ccc(O)cc1O [4-Butylresorcinol (Rucinol), 4-Butylresorcinol, reference compound] | 55000
300 | 150 | C[C@H](NC(=O)N1CCC(c2ccc(O)cc2O)CC1)c1ccccc1 [Compound 24, 4-(2,4-dihydroxyphenyl)piperidine-1-carboxylic acid ((S)-1-phenylethyl)amide] | > 999000
700 | 200 | O=C([C@@H](O)c1ccccc1)N1CCC(c2ccc(O)cc2O)CC1 [Compound 48, (S)-1-[4-(2,4-dihydroxyphenyl)piperidin-1-yl]-2-hydroxy-2-phenylethanone] | > 999000
